# PMC11372264, “^61Cu-PSMA–Targeted PET for Prostate Cancer: From Radiotracer Development to First-in-Human Imaging” (Journal of Nuclear Medicine, 2024)
# Several values for one entry are separate records, joined by “and”; a condition that tells them apart may be missing. Identical values can stand only once.
# Key:
# [1] = tested on: LNCaP cells; test: Cellular uptake and distribution (surface-bound, internalized) in LNCaP cells; format: cell-based; settings: 1 h, 37°C
# Description: The lipophilicity of [^61Cu]Cu-DOTAGA-PSMA-I&T and [^61Cu]Cu-NODAGA-PSMA-I&T was assessed by determining the distribution coefficient in a 1:1 mixture of 1-octanol–to–phosphate-buffered saline at pH 7.4, in comparison with all reference radiotracers. Inhibitory concentration of 50% (IC50) was assessed by competition binding on lymph node carcinoma of the prostate (LNCaP) using ((S)-1-carboxy-5-(4-(-^125I-iodo-benzamido)pentyl)carbamoyl)-L-glutamic acid as the reference radioligand. Cellular uptake and distribution were assessed in LNCaP cells at 5, 15, 30, 60, and 120 min after exposure to the radioligand at 37°C, either alone or in the presence of 10 µM 2-(phosphonomethyl)pentanedioic acid to distinguish between specific and nonspecific uptake.
# FIGURE 1. In vitro assessment in LNCaP cells after 1 h at 37°C. (A) Competition binding activity curves of ^natCu-DOTAGA-PSMA-I&T, ^natCu-NODAGA-PSMA-I&T, and ^natGa-PSMA-11 on LNCaP cells after 1 h of incubation on ice, using ((S)-1-carboxy-5-(4-(-^125I-iodo-benzamido)pentyl)carbamoyl)-L-glutamic acid ([^125I-BA]KuE) at concentration of 0.2 nM as reference radioligand. (B) Cellular uptake (surface-bound + internalized). Cell surface–bound and internalized fractions are indicated. Results represent mean ± SD of specific (total − nonspecific) uptake from minimum of 2 separate experiments, each in triplicate.
# [2] = Human dosimetry estimates (OLINDA/EXM version 1.0) from mouse biodistribution; settings: standard adult man phantom; mouse kinetics assumed same as human
# Description: Additional biodistribution data were generated in healthy BALB/c mice using [^64Cu]Cu-NODAGA-PSMA-I&T at 1, 4, 12, and 24 h after injection and combined with the data of [^61Cu]Cu-NODAGA-PSMA-I&T at 1 and 4 h after injection. Non–decay-corrected biodistribution data for ^61Cu (t1/2, 3.33 h) were used to generate time–activity curves for [^61Cu]Cu-NODAGA-PSMA-I&T. OLINDA/EXM version 1.0 (Vanderbilt University) was used for the dosimetry estimates, as described in the supplemental materials.
# [3] = Stability of radiotracer at room temperature (radiochemical purity over time); format: physicochemical; settings: good manufacturing practice grade for human use, 20 MBq/nmol
# Description: [^61Cu]Cu-DOTAGA-PSMA-I&T and [^61Cu]Cu-NODAGA-PSMA-I&T were synthesized with radiolabeling yield of more than 98% and radiochemical purity of more than 97% (radio–high-performance liquid chromatography analysis) at an apparent molar activity of 24 MBq/nmol. Thus, no purification was required after labeling. Although [^61Cu]Cu-DOTAGA-PSMA-I&T needed elevated temperature (95°C) and 15 min of reaction time, [^61Cu]Cu-NODAGA-PSMA-I&T was synthesized at room temperature within 5 min. After 4 h at room temperature, the radiochemical purity of [^61Cu]Cu-DOTAGA-PSMA-I&T dropped to approximately 90%, whereas it remained stable (∼97%) for [^61Cu]Cu-NODAGA-PSMA-I&T. All analytic data and quality control results are provided in Supplemental Figures 1 and 2 and in Supplemental Tables 1 and 2.
# With inexpensive ^natNi as the starting material, highly pure ^61Cu could be produced with radionuclidic purity exceeding 99.99% at 12 h after synthesis (details on the production will be published elsewhere). The preparation of [^61Cu]Cu-NODAGA-PSMA-I&T was performed in widely used buffers at room temperature within 5 min. […] High labeling yields and suitable molar activities for clinical use eliminate the need for any purification step after labeling. […]
smiles,measurement,setting,value
"O=C([O-])CN1CCN(CC(=O)[O-])CCN(C(CCC(=O)N[C@H](Cc2ccc(O)c(I)c2)C(=O)N[C@H](Cc2ccccc2)C(=O)N[C@H](CCCCNC(=O)CCCCCCC(=O)NCCCC[C@H](NC(=O)N[C@@H](CCC(=O)O)C(=O)O)C(=O)O)C(=O)O)C(=O)O)CC1.[61Cu+2] (stereo partly drawn) [[^61Cu]Cu-NODAGA-PSMA-I&T, NODAGA-(l-y)fk(sub-KuE)]",Cellular uptake (surface-bound + internalized),[1]; specific uptake,22.4% ± 3.3%
same,Internalized fraction,[1]; % of applied activity,11.7 ± 1.6%
same,Surface-bound fraction,[1]; % of applied activity,10.8 ± 1.8%
same,Effective dose,[2],0.0142 mSv/MBq and 1.42E−02 mSv/MBq
same,"Total absorbed dose, men: Adrenals",[2],8.39E−02 mGy/MBq
same,"Total absorbed dose, men: Brain",[2],6.18E−05 mGy/MBq
same,"Total absorbed dose, men: Gallbladder wall",[2],2.30E−02 mGy/MBq
same,"Total absorbed dose, men: Heart wall",[2],6.94E−03 mGy/MBq
same,"Total absorbed dose, men: Kidneys",[2],1.74E+00 mGy/MBq
same,"Total absorbed dose, men: LLI wall",[2],4.64E−03 mGy/MBq
same,"Total absorbed dose, men: Liver",[2],2.51E−02 mGy/MBq
same,"Total absorbed dose, men: Lungs",[2],6.11E−03 mGy/MBq
same,"Total absorbed dose, men: Muscle",[2],6.00E−03 mGy/MBq
same,"Total absorbed dose, men: Osteogenic cells",[2],5.31E−03 mGy/MBq
same,"Total absorbed dose, men: Pancreas",[2],4.83E−02 mGy/MBq
same,"Total absorbed dose, men: Red marrow",[2],1.11E−02 mGy/MBq
same,"Total absorbed dose, men: Skin",[2],2.90E−03 mGy/MBq
same,"Total absorbed dose, men: Small intestine",[2],3.79E−02 mGy/MBq
same,"Total absorbed dose, men: Spleen",[2],7.37E−02 mGy/MBq
same,"Total absorbed dose, men: Stomach wall",[2],1.71E−02 mGy/MBq
same,"Total absorbed dose, men: Testes",[2],5.39E−04 mGy/MBq
same,"Total absorbed dose, men: Thymus",[2],1.67E−03 mGy/MBq
same,"Total absorbed dose, men: Thyroid",[2],4.99E−04 mGy/MBq
same,"Total absorbed dose, men: Total body",[2],1.38E−02 mGy/MBq
same,"Total absorbed dose, men: ULI wall",[2],1.43E−02 mGy/MBq
same,"Total absorbed dose, men: Urinary bladder wall",[2],2.06E−03 mGy/MBq
same,Time stable at room temperature,[3],up to 9 h
